We go through two substances from patent US8202507B2, “Assay for vitamin B12 absorption and method of making labeled vitamin B12” (The Regents of the University of California, priority 2004, dated 2012).

For data set [1] the following is noted: cited from earlier work.
Data set [2] can be described thus: AMS assay of B12 absorption in a normal human subject after oral ^14C-vitamin B12. It is filed as in vivo. To be noted: for total of oral dose recovered in urine and feces: seven days post-dose, cumulative urine and stool; for delay in the appearance of the label in plasma: plasma by AMS. The method, then: This example describes the use of this labeled B12 and AMS to assay B12 absorption in a normal human subject. A single 1.5 μg dose of the ^14C-vitamin B12 was administered orally and detected by AMS as it appeared in the bloodstream.
The subject was a healthy person with a body mass index (BMI) of 27.5. The subject began complete fecal and urine collection 24 h in advance of the dose and continued complete 24 h collections until Day 7. On the day of dose administration, the subject was fitted with an intravenous catheter in a forearm vein. Blood was drawn into 7 mL tubes containing EDTA. A baseline blood sample was drawn (7 AM) and the dose consumed that corresponded to 2.2 KBq of radioactivity (1.5 μg) was administered in 50 mL of drinking water in a paper cup. The volunteer was allowed to have water ad libitum thereafter, with a light meal taken 2 hr postdose. Blood samples were drawn at frequent intervals for the first 15 hr post-dose and daily thereafter. Meals were controlled for time and content on the dose administration day.
AMS analysis. Aliquots of plasma (30 μL), urine (80 μL) and a stool slurry (80 μL) were dried, combusted to CO2, and reduced to filamentous carbon using known procedures. No other processing preceded the graphization step, thus quantitative recovery was ensured. The ^14C measurements were performed at the Center for Accelerator Mass Spectrometry at Lawrence Livermore National Laboratory. Measurements were conducted to <3% instrument imprecision and, in general, signal acquisition was complete to the desired statistical precision in 3-5 min per sample. The radiation exposure of the subject, due to the ^14C-B12 dose, was equivalent or less than exposure due to 10 hours of intercontinental plane flight.

On to Cyanocobalamin, for which the solubility in water in data set [1] (25° C.) is recorded as 1.2%. Moreover, in data set [1], the “solubility in acetone, chloroform and ether” value was “insoluble”; the “solubility in alcohol and phenol” value is “soluble”.
On to ^14C-cyanocobalamin [^14C-vitamin B12], for which the “total of oral dose recovered in urine and feces” value in data set [2] is 15.8%; in data set [2] (listed as 14C), 15.9%. Also, the “share of the quantified output accounted for” value in data set [2] (seventy-two hours post-dose, urine and feces) is recorded as 99%. Moreover, the “delay in the appearance of the label in plasma” value in data set [2] (single 1.5 μg oral dose) is “two to three”; in data set [2] (single 1.5 μg oral dose, listed as 14C from the labeled vitamin B12), “three”. For the same substance, the “peak circulating ^14C-B12 as percent of the administered dose” value in data set [2] (single 1.5 μg oral dose, plasma, at peak after seven hours) is “less than three”. Also, the “label in the twenty-four hour urine collection” value in data set [2] (single 1.5 μg oral dose, urine, no flushing dose) is given as 6.8 % of administered dose.
